Where two headings read alike, the source gives them in different places.
How the values were obtained:
[1] = tested on: erythrocytic stages of P. falciparum NF54; experiment: Plasmodium falciparum in vitro assay, [3H] hypoxanthine incorporation; format: cell-based; conditions: Plasmodium falciparum, Erythrocyte, 72 h, P. falciparum NF54 in human red blood cells, 48 h + 24 h incubation
Procedure: In Vitro Antimalarial Activity: Plasmodium falciparum In Vitro Assay In vitro activity against erythrocytic stages of P. falciparum in human red blood cells is determined using a [^3H] hypoxanthine incorporation assay. […] Thereafter, the parasite cultures incubated in screening medium containing washed human red blood cells at 2.5% hematocrit (0.3% parasitemia) are added to the serially diluted compounds and incubated in a humidifying atmosphere at 37° C., 4% CO2, 3% O2, and 93% N2. After 48 h, [^3H] hypoxanthine (0.5 μCi) is added to each well of a plate. The plates are incubated for a further 24 h under the same conditions then harvested with a Betaplate cell harvester (Wallac) and washed with distilled water. The dried filters are inserted into a plastic foil with 10 mL of scintillation fluid, and counted in a Betaplate liquid scintillation counter. IC50 values are calculated from sigmoidal inhibition curves using Microsoft Excel.

[2] = tested on: P. berghei strain GFP-ANKA; experiment: In vivo antimalarial efficacy study in infected NMRI mice; conditions: Plasmodium berghei; female NMRI mice infected with P. berghei GFP-ANKA; single oral dose of 100 mg/kg 24 h after infection; parasitemia 48 h after drug treatment (day 3); read-out: Activity (inhibition of parasitemia) expressed as a percent relative to the control group
Procedure: In Vivo Antimalarial Efficacy Studies
In vivo antimalarial activity is assessed for groups of three female NMRI mice (20-22 g) intravenously infected on day 0 with P. berghei strain GFP-ANKA (0.2 mL heparinized saline suspension containing 2×10^7 parasitized erythrocytes). In control mice, parasitemia typically rises to approximately 40% by day 3 after infection. Compounds are formulated in Tween 80/ethanol (7%/3%) usually at concentrations of 10 mg/mL. Compounds are administered in a volume of 10 mL/kg orally as single doses (1×100 mg/kg, 24 h after infection). 48 h after drug treatment (day 3 post-infection), 1 μl tail blood is taken, resuspended in 1 mL PBS buffer and parasitemia determined with a FACScan (Becton Dickinson) by counting 100′000 red blood cells. Activity is calculated as the difference between the mean value of the control group and treated groups expressed as a percent relative to the control group.

[3] = screening medium with Albumax (5 g/L), read-out: IC50 on NF54 (with Albumax)
[4] = screening medium with human serum (50% final concentration), read-out: IC50 on NF54 (with 50% Serum)

SMILES	IC50 [1, 3]	IC50 [1, 4]	inhibition in vivo at 100 mg/kg [2]
CC(=O)N1CCN(c2ccc(CN(C(=O)C=Cc3ccc(OC(C)C)cc3)[C@@H](Cc3ccccc3)C(=O)N3CCN(Cc4ccc(N(C)C)cc4)CC3)cc2)CC1 [Example 19, (S)-N-[4-(4-Acetyl-piperazin-1-yl)-benzyl]-N-{1-benzyl-2-[4-(4-dimethylamino-benzyl)-piperazin-1-yl]-2-oxo-ethyl}-3-(4-isopropoxy-phenyl)-acrylamide]	2.6 nM	9.3 nM	99.2%
CC(=O)N1CCN(c2ccc(CN(C(=O)C=Cc3ccc(S(C)(=O)=O)cc3)[C@@H](Cc3ccccc3)C(=O)N3CCN(Cc4ccc(Cl)cc4)CC3)cc2)CC1 [Example 36, (S)-N-[4-(4-Acetyl-piperazin-1-yl)-benzyl]-N-{1-benzyl-2-[4-(4-chloro-benzyl)-piperazin-1-yl]-2-oxo-ethyl}-3-(4-methanesulfonyl-phenyl)-acrylamide]	7.8 nM	28 nM	46.8%
CC(=O)N1CCN(c2ccc(CN(C(=O)C=Cc3ccc(OC(C)C)cc3)[C@@H](Cc3ccccc3)C(=O)N3CCN(Cc4ccc(N(C)CCO)cc4)CC3)cc2)CC1 [Example 58, (S)-N-[4-(4-Acetyl-piperazin-1-yl)-benzyl]-N-[1-benzyl-2-(4-{4-[(2-hydroxy-ethyl)-methyl-amino]-benzyl}-piperazin-1-yl)-2-oxo-ethyl]-3-(4-isopropoxy-phenyl)-acrylamide]	1.4 nM	3.9 nM	98.2%
CC(=O)N1CCN(c2ccc(CN(C(=O)C=Cc3ccc(OC(F)F)cc3)[C@@H](Cc3ccccc3)C(=O)N3CCN(Cc4ccc(C#N)cc4)CC3)cc2)CC1 [Example 31, (S)-N-[4-(4-Acetyl-piperazin-1-yl)-benzyl]-N-{1-benzyl-2-[4-(4-cyano-benzyl)-piperazin-1-yl]-2-oxo-ethyl}-3-(4-difluoromethoxy-phenyl)-acrylamide]	1.7 nM	3.8 nM	88.9%
CCc1ccc(C=CC(=O)N(Cc2ccc(N3CCN(C(C)=O)CC3)cc2)[C@@H](Cc2ccccc2)C(=O)N2CCN(Cc3ccc(N(C)C)cc3)CC2)cc1 [Example 20, (S)-N-[4-(4-Acetyl-piperazin-1-yl)-benzyl]-N-{1-benzyl-2-[4-(4-dimethylamino-benzyl)-piperazin-1-yl]-2-oxo-ethyl}-3-(4-ethyl-phenyl)-acrylamide]	1.2 nM	7.1 nM	98.5%
CC(=O)N1CCN(c2ccc(CN(C(=O)C=Cc3ccc(OC(F)(F)F)cc3)[C@@H](Cc3ccccc3)C(=O)N3CCN(Cc4ccc(C#N)cc4)CC3)cc2)CC1 [Example 33, (S)-N-[4-(4-Acetyl-piperazin-1-yl)-benzyl]-N-{1-benzyl-2-[4-(4-cyano-benzyl)-piperazin-1-yl]-2-oxo-ethyl}-3-(4-trifluoromethoxy-phenyl)-acrylamide]	3.3 nM	10.9 nM	97.4%
CCCOc1ccc(C=CC(=O)N(Cc2ccc(N3CCN(C(C)=O)CC3)cc2)[C@@H](Cc2ccccc2)C(=O)N2CCN(Cc3ccc(S(C)(=O)=O)cc3)CC2)cc1 [Example 46, (S)-N-[4-(4-Acetyl-piperazin-1-yl)-benzyl]-N-{1-benzyl-2-[4-(4-(methylsulfonyl)-benzyl)-piperazin-1-yl]-2-oxo-ethyl}-3-(4-propoxyphenyl)-acrylamide]	0.4 nM	1.1 nM	98.9%
CCCOc1ccc(C=CC(=O)N(Cc2ccc(N3CCN(C(C)=O)CC3)cc2)[C@@H](Cc2ccccc2)C(=O)N2CCN(Cc3ccc(Cl)cc3)CC2)cc1 [Example 38, (S)-N-[4-(4-Acetyl-piperazin-1-yl)-benzyl]-N-{1-benzyl-2-[4-(4-chloro-benzyl)-piperazin-1-yl]-2-oxo-ethyl}-3-(4-propoxy-phenyl)-acrylamide]	1.8 nM	9 nM	98.5%
CC(=O)N1CCN(c2ccc(CN(C(=O)C=Cc3ccc(C(F)(F)F)cc3)[C@@H](Cc3ccccc3)C(=O)N3CCN(Cc4ccc(S(C)(=O)=O)cc4)CC3)cc2)CC1 [Example 47, (S)-N-(4-(4-acetylpiperazin-1-yl)benzyl)-N-(1-(4-(4-(methylsulfonyl)benzyl)piperazin-1-yl)-1-oxo-3-phenylpropan-2-yl)-3-(4-(trifluoromethyl)phenyl)acrylamide]	0.5 nM	3.5 nM	98.4%
CC(=O)N1CCN(c2ccc(CN(C(=O)C=Cc3ccc(C(C)(C)C)cc3)[C@@H](Cc3ccccc3)C(=O)N3CCN(Cc4ccc(Cl)cc4)CC3)cc2)CC1 [Example 43, (S)-N-[4-(4-Acetyl-piperazin-1-yl)-benzyl]-N-{1-benzyl-2-[4-(4-chloro-benzyl)-piperazin-1-yl]-2-oxo-ethyl}-3-(4-tert-butyl-phenyl)-acrylamide]	1.1 nM	13.5 nM	98.7%
CC(=O)N1CCN(c2ccc(CN(C(=O)C=Cc3ccc(OC(F)F)cc3)[C@@H](Cc3ccccc3)C(=O)N3CCN(Cc4ccc(N(C)C)cc4)CC3)cc2)CC1 [Example 21, (S)-N-[4-(4-Acetyl-piperazin-1-yl)-benzyl]-N-{1-benzyl-2-[4-(4-dimethylamino-benzyl)-piperazin-1-yl]-2-oxo-ethyl}-3-(4-difluoromethoxy-phenyl)-acrylamide]	1.9 nM	7 nM	98.8%
CCc1ccc(C=CC(=O)N(Cc2ccc(N3CCN(C(C)=O)CC3)cc2)[C@@H](Cc2ccccc2)C(=O)N2CCN(Cc3ccc(C#N)cc3)CC2)cc1 [Example 30, (S)-N-[4-(4-Acetyl-piperazin-1-yl)-benzyl]-N-{1-benzyl-2-[4-(4-cyano-benzyl)-piperazin-1-yl]-2-oxo-ethyl}-3-(4-ethyl-phenyl)-acrylamide]	0.9 nM	5 nM	97.7%
CC(=O)N1CCN(c2ccc(CN(C(=O)C=Cc3ccc(OC(C)C)cc3)[C@@H](Cc3ccccc3)C(=O)N3CCN(Cc4ccc(Cl)cc4)CC3)cc2)CC1 [Example 39, (S)-N-[4-(4-Acetyl-piperazin-1-yl)-benzyl]-N-{1-benzyl-2-[4-(4-chloro-benzyl)-piperazin-1-yl]-2-oxo-ethyl}-3-(4-isopropoxy-phenyl)-acrylamide]	2.3 nM	11 nM	99%
CC(=O)N1CCN(c2ccc(CN(C(=O)C=Cc3ccc(C(C)(C)C)cc3)[C@@H](Cc3ccccc3)C(=O)N3CCN(Cc4ccc(S(C)(=O)=O)cc4)CC3)cc2)CC1 [Example 45, (S)-N-[4-(4-Acetyl-piperazin-1-yl)-benzyl]-N-{1-benzyl-2-[4-(4-(methylsulfonyl)-benzyl)-piperazin-1-yl]-2-oxo-ethyl}-3-(4-tert-butyl-phenyl)-acrylamide]	0.2 nM	1.8 nM	99.4%
CC(=O)N1CCN(c2ccc(CN(C(=O)C=Cc3ccc(OC(F)F)cc3)[C@@H](Cc3ccccc3)C(=O)N3CCN(Cc4ccc(N(C)CCO)cc4)CC3)cc2)CC1 [Example 60, (S)-N-[4-(4-Acetyl-piperazin-1-yl)-benzyl]-N-[1-benzyl-2-(4-{4-[(2-hydroxy-ethyl)-methyl-amino]-benzyl}-piperazin-1-yl)-2-oxo-ethyl]-3-(4-difluoromethoxy-phenyl)-acrylamide]	3 nM	8.1 nM	78.3%
CC(=O)N1CCN(c2ccc(CN(C(=O)C=Cc3ccc(C(C)C)cc3)[C@@H](Cc3ccccc3)C(=O)N3CCN(Cc4ccccc4)CC3)cc2)CC1 [Example 10, (S)-N-[4-(4-Acetyl-piperazin-1-yl)-benzyl]-N-[1-benzyl-2-(4-benzyl-piperazin-1-yl)-2-oxo-ethyl]-3-(4-isopropyl-phenyl)-acrylamide]	3 nM	8.6 nM	96%
COC(=O)c1ccc(C=CC(=O)N(Cc2ccc(N3CCN(C(C)=O)CC3)cc2)[C@@H](Cc2ccccc2)C(=O)N2CCN(Cc3ccccc3)CC2)cc1 [Example 5, (S)-4-(2-{[4-(4-Acetyl-piperazin-1-yl)-benzyl]-[1-benzyl-2-(4-benzyl-piperazin-1-yl)-2-oxo-ethyl]-carbamoyl}-vinyl)-benzoic acid methyl ester]	3.9 nM	12 nM	< 40%

— patent US8889688B2, “Piperazines as antimalarial agents” (Actelion Pharmaceuticals Ltd., priority 2011, dated 2014)
